According to US20140112895A1, “GLP-1 PROMOTER MEDIATED INSULIN EXPRESSION FOR THE TREATMENT OF DIABETES” (priority 2010, published 2014):

Test system: STC-1 cells
Assay: MTT assay of antibiotic cytotoxicity on STC-1 cells
Format: cell-based, mouse
Conditions: STC-1 cells without antibiotic resistant gene; antibiotic range 0 to 1 mg/ml; optical density read at 560 nm
Source text: For assessment of antibiotic cytotoxicity, a common methodology is the MTT assay which has been widely used as a colorimetric approach based on the activity of living cells. MTT assay is a standard assay (an assay which measures changes in color) for measuring cellular proliferation. Yellow MTT (3-(4,5-Dimethylthiazol-2-yl)-2,5-diphenyltetrazolium bromide, a tetrazole) is reduced to purple formazan in the mitochondria of living cells. The absorbance of this colored solution can be quantified by measuring at a certain wavelength (usually between 500 and 600 nm) by a spectrophotometer.
Therefore, the MTT assay was done for both antibiotics to determine the appropriate concentration of the antibiotic that kills the entire STC-1 cells lacking the antibiotic resistant gene. In this case, STC-1 cells (without any antibiotic resistant gene) were treated with different concentration of zeocin and geneticin antibiotic. The concentration of antibiotics in the culture media was in the range of 0 to 1 mg/ml in 12 wells (Table 7).
Optical density of solutions was read at 560 nm on an ELISA plate reader. The absorbance of colored solution is directly proportional to the number of cells. Based on MTT assay result, the concentration of geneticin and zeocin antibiotic that are able to kill all the STC-1 cells (without antibiotic resistant gene) were 400 ug/ml and 500 ug/ml.

Compound | concentration of antibiotic able to kill all the STC-1 cells [µg/mL]
CN[C@@H]1[C@@H](O)[C@@H](O[C@@H]2[C@@H](O)[C@H](O[C@H]3O[C@H]([C@@H](C)O)[C@@H](O)[C@H](O)[C@H]3N)[C@@H](N)C[C@H]2N)OC[C@]1(C)O [geneticin] | 400
Cc1c(N)nc([C@H](CC(N)=O)NC[C@H](N)C(N)=O)nc1C(=O)N[C@H](C(=O)N[C@H](C)[C@@H](O)[C@H](C)C(=O)N[C@H](C(=O)NCCC1=N[C@@H](c2nc(C(=O)NCCCCN=C(N)N)cs2)CS1)[C@@H](C)O)[C@@H](O[C@@H]1O[C@@H](CO)[C@@H](O)[C@H](O)[C@@H]1O[C@H]1O[C@H](CO)[C@@H](O)[C@H](OC(N)=O)[C@@H]1O)c1cnc[nH]1 [zeocin] | 500
